Entries after “also recorded” stand apart in the source; their conditions may differ.

Data set [1] deals with T1, mushroom tyrosinase (Agaricus bisporus, UniProt C7FF04).
T1 construct: purchased Sigma Chemical Co. T3824-50KU
Description: Affinity-based ultrafiltration UPLC-QTOF-MS binding experiment. As to the method:
(§1) Affinity-based ultrafiltration was performed as previously described by Zuo et al. and Wang et al.[15]^,[19]^,[23]. First, […] of 0.25 M phosphate buffer (pH 6.8) with 10% glycerol was added to 13 μL of mushroom tyrosinase (144 U in the same phosphate buffer solution) and 100 μL of 1000 mg/mL extract (the test solution was consistently 3.3%). The final concentration of the extract was adjusted to 1000 ppm. The mixture was incubated for 15 or 50 min at 37 °C on a plate shaker. Then, the sample was centrifuged at 13,000 rpm for 20 min, and the supernatant was collected for analysis. The supernatant solution was filtered through a membrane (PTFE 0.2 μm, hydrophobic, Advantec, Japan), and 2 μL of each solution was injected for UPLC-PDA-QTOF-MS analysis.
(§2) The compounds from the P. rotundum var. subintegrum extract were analysed by UPLC-PDA-ESI-QTOF-MS. […] MS was performed in negative ion mode ([M − H]^−). N2 was used as the desolvation gas, the desolvation temperature was set to 350 °C at a flow rate of 400 L/h with a source temperature of 100 °C. The capillary and cone voltages were set to 2300 and 50 V, respectively. The data for each sample were collected with a scan time of 0.25 s and a 0.01 s interscan delay. Exact MS, MS/MS, and elemental analysis were confirmed using MassLynx software incorporated into the Waters instrument.

Data set [2] concerns mushroom tyrosinase. The data set is described as above. The note with it: UPLC-QTOF-MS peak area in 1000 ppm extract, not exposed to enzyme. As to the method: as §1, §2
Data set [3] addresses T1, mushroom tyrosinase. Description: Affinity-based time-dependent assay (slow-binding kinetics). It is filed as biochemical. The note with it: for Time dependence of inhibition: mushroom tyrosinase, L-tyrosine. As to the method: Time-dependent assays were carried out using 144 U of mushroom tyrosinase and L-tyrosine as the substrate in 0.25 M phosphate buffer (pH 6.8) at 30 °C. […] The data were analysed using a nonlinear regression program [SigmaPlot (SPCC Inc., Chicago, IL)] to give the individual parameters for each curve; vi (initial velocity), vs (steady–state velocity), kobs (apparent first–order rate constant for the transition from vi to vs), A (intensity), A0 (included to correct any possible deviation in the baseline), and Ki^app (apparent Ki) according to Equations. 2–4[26–28]: (2) A=vst + (vi–vs)[1 – exp (–kobst)]/kobs (3) v/v0= exp(−kobst) (4) kobs=k6+ [(k5 × [I])/(Ki^app + [I])]

In data set [4] the target is T2, Mushroom tyrosinase (mTyr) (Agaricus bisporus, UniProt C7FF04).
T2 construct: purchased Sigma Chemical Co. T3824-50KU
Nature of the data set: Mushroom tyrosinase inhibition, L-DOPA substrate (diphenolase). Type of data set: biochemical.
Target sequence in this assay (C7FF04 1-392 limits assumed): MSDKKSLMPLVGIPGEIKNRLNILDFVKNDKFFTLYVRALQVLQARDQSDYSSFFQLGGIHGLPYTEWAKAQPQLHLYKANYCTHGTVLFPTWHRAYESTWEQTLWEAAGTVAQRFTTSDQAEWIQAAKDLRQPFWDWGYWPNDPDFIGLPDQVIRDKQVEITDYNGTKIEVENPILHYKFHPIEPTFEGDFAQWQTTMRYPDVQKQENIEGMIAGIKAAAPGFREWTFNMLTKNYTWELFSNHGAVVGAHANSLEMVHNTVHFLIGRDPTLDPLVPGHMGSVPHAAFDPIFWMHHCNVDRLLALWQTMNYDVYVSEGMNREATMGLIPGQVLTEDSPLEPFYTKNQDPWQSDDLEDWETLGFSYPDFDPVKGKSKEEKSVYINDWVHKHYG

Data set [5] has as its target T2, Mushroom tyrosinase (mTyr). Description: Mushroom tyrosinase inhibition, L-tyrosine substrate (monophenolase). It is filed as biochemical. The note with it: for Type of inhibition (monophenolase): L-tyrosine, Lineweaver-Burk and Dixon plots.
Target sequence in this assay (C7FF04 1-392): as the sequence (C7FF04 1-392 limits assumed) above
In the next data set the test system is B16F10 cells. Nature of the data set: CCK-8 cell viability assay, B16F10. Type of data set: cell-based, murine. As to conditions: 48 h. Here is the method:
(§3) The B16F10 melanoma and Melan-A normal murine melanocyte cells were purchased from the American Type Culture Collection (ATCC), respectively. The B16F10 cells were cultured in complete Dulbecco's Modified Eagle's Medium (DMEM high glucose, Gibco) supplemented with 10% (v/v) Fetal Bovine Serum (FBS, Gibco, USA), 100 U/mL penicillin, 50 μg/ml streptomycin. The Melan-A cells were cultured in RPMI -1640 medium supplemented with 10% FBS, 2 mM L -glutamine, 200 nM 12 -o-tetradecanoyl phorbol -13-acetate (Sigma, USA), 100 U/mL penicillin, 50 μ g/ml streptomycin, and grown in a humidified atmosphere containing 5% CO 2 in ai r at 37°C.
(§4) The cells were seeded in 96 -well plates at a density of 5 × 10^3 cells/well in cultured medium. The cells were treated with the corresponding concentrations of verproside for 48 h. Cell viability was measured in triplicate using a Cell Counting Kit -8 (CCK -8; Dojindo Molecular Technologies, Rockville, MD, USA) . Absorbance was determined using an Epoch microplate reader (BioTek Instruments, Winooski, VT, USA, #CK04) and calculated as a relative percentage (%) of the control […]
(§5) Figure S4 . The cell viability by verproside in B16F10 and Melna -A cells. (A) CCK -8 assays in B16F10 cells. (B) CCK -8 assays in Melna -A cells.
(§6) (1 picture or pasted object on this page, not shown here)
For orientation: Formazan colour is commonly taken as a measure of viable cells.

Data set [6] has as its target T3, recombinant human tyrosinase (hTyr) (Homo sapiens, UniProt P14679).
T3 construct: His-tag; purchased Enzo Life Sciences BML-SE535-0100
T3 sequence (P14679 19-529): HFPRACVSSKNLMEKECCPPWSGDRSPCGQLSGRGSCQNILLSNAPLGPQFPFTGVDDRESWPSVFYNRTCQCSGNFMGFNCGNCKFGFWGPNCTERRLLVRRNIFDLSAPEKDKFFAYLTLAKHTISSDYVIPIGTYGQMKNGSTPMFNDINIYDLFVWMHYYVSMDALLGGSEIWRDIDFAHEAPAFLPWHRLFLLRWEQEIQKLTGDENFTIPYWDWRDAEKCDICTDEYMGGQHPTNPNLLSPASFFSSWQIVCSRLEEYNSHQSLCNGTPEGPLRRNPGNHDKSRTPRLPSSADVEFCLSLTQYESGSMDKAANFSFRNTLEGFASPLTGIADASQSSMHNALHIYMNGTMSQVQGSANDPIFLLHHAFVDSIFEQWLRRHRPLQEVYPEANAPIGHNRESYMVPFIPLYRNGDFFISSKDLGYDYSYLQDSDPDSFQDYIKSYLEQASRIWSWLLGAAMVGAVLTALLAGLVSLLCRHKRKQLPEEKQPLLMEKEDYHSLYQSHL
Nature of the data set: Human tyrosinase inhibition, L-DOPA substrate. Type of data set: biochemical. Here is the method:
The enzymatic activities of tyrosinase were tested in vitro with the substrates and inhibitors known to interact with mushroom and mammalian tyrosinases (http://www.brenda-enzymes.info). The Michaelis-Menten constant (Km) of proteins was calculated from Lineweaver-Burk plots for 1/V0 versus 1/[substrate]. Mushroom tyrosinase (mTyr, EC 1.14.18.1, Sigma Chemical Co., T3824-50KU) was used as described previously[9] with some modifications with either 3,4-Dihydroxy-L-phenylalanine (L-DOPA, D9628-5G) or L-tyrosine (T3754-50G) as the substrate. In the spectrophotometric experiments, the initial velocity (vi) of enzymatic activity was monitored by observing dopachrome formation at 475 nm with a UV–vis spectrophotometer (SpectraMax M4, Molecular Devices, Sunnyvale, CA, USA) at 37 °C. The reaction was performed in a 96-well plate. All samples were first dissolved in dimethyl sulfoxide (DMSO) at a concentration of 2 mM. […] The activity of recombinant human tyrosinas (hTyr, His-tag, Enzo® Life Sciences, NY, USA, Cat. No. BML-SE535-0100) was determined using L-DOPA as a substrate, and the procedure involved a previously described absorption assay. […] The reaction was incubated for 10 min at 37 °C and was monitored at 475 nm for dopachrome formation on a SpectraMax M4 multimode detection platform (Molecular Devices). […]

Another data set relates to Melan-A cells. Description: CCK-8 cell viability assay, Melan-A. It is filed as cell-based, murine. The note with it: 48 h. Here is the method:
as §3, §4, §5, §6

Data set [7] concerns the target T3, recombinant human tyrosinase (hTyr). Description: Human tyrosinase inhibition, L-tyrosine substrate. Type of data set: biochemical.

T1 sequence (C7FF04 1-392): as the sequence (C7FF04 1-392 limits assumed) above

One may read the IC50 as the midpoint of a concentration-inhibition curve. The term inhibition denotes how much of the control response was suppressed. For `O=C(OC1C2C=COC(OC3OC(CO)C(O)C(O)C3O)C2C2(CO)OC12)c1ccc(O)c(O)c1` (centres unmarked) [Verproside (1), Verproside], the “after tyrosinase (area)” value on mushroom tyrosinase [1] (UPLC-QTOF-MS peak area in 1000 ppm extract after incubation with mTyr) worked out at 61907 area. The “Relative metabolite intensity upon treatment with mTyr” value on mushroom tyrosinase [1] (extract treated with mTyr, 15 min preincubation) was “significantly reduced”. In addition, the “Control (area)” value in the data set on mushroom tyrosinase [2] is reported as 112306 area. For the same compound, the k5 on mushroom tyrosinase [3] (fit of kobs to Equation (4)) came to 0.04496 s⁻¹. This compound also yielded a k6 on mushroom tyrosinase [3] (fit of kobs to Equation (4)) of 0.00001103 s⁻¹. Moreover, the Ki is 2400 µM at mushroom tyrosinase [3] (fit of kobs to Equation (4), read-out: Ki^app (apparent Ki)) and 5.1 µM in [5] (mTyr, L-tyrosine (monophenolase), read-out: Ki (inhibition constant)). For the same compound, the “Time dependence of inhibition” value at mushroom tyrosinase [3] (listed as verproside) is on record as “time-dependent; also recorded: slow-binding”; at mushroom tyrosinase [3] (listed as verproside (1)), “time-dependent inhibition”. Besides, the “Type of inhibition (diphenolase)” value in data set [4] (mTyr diphenolase activity) is given as “competitive inhibition”. In addition, the IC50 turned out to be 177 ± 33.1 µM in [4] (mTyr, L-DOPA substrate, read-out: Mushroom Tyrosinase L-DOPA IC50); 31.2 ± 2.1 µM in [5] (mTyr, L-tyrosine substrate (monophenolase), read-out: Mushroom Tyrosinase L-Tyrosine IC50); 843 µM in data set [6]; 197 µM in data set [7] (hTyr, L-tyrosine substrate). Moreover, the “Type of inhibition (monophenolase)” value in [5] (mTyr) is recorded as “competitive inhibition”; in data set [5] (mTyr, listed as verproside), “competitive”. The inhibition at 100 µM in data set [5] (read-out: Mushroom Tyrosinase L-Tyrosine 100 µM inhibition (%)) worked out at 98.4%. Also, the Cell viability entry with B16F10 cells and in the data set with Melan-A cells was “did not significantly affect cell viability” throughout. The “Efficacy relative to positive control kojic acid in hTyr” value in data set [7] (ratio of hTyr IC50 values, kojic acid / verproside) is 5.6 fold.
